Common to all, as to format: cell-based
Experiment [1] has as its target T1, GLP-1R (INS1e assay) (Rattus norvegicus, UniProt P32301).
T1 construct: endogenous in cells; host or cells: INS-1E cells
T1 sequence (P32301 22-463): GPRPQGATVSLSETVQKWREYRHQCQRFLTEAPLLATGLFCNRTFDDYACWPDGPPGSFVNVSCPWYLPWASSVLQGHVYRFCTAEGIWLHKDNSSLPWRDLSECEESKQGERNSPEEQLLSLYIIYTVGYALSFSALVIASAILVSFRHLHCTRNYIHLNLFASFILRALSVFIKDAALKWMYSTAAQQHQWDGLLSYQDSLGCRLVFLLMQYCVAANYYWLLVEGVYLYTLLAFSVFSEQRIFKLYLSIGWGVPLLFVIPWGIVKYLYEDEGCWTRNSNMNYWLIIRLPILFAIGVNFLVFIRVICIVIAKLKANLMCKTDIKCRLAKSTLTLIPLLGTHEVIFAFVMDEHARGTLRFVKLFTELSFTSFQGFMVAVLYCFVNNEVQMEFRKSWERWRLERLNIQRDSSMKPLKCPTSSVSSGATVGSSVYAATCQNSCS
Description: INS1e assay, cAMP activity at GLP-1R. Conditions: bis-lipidated peptides. The procedure: cAMP levels are measured using a commercially available cAMP dynamic 2 HTRF kit (Cisbio, Cat #62AM4PEJ), following the two step protocol as per manufacturer's recommendations. In brief; anti-cAMP cryptate (donor fluorophore) and cAMP-d2 (acceptor fluorophore) are made up separately by diluting each 1/20 in conjugate & lysis buffer provided in the kit. 5 μL anti-cAMP cryptate is added to wells of the assay plate, and 5 μL cAMP-d2 is added to wells except non-specific binding (NSB) wells, to which conjugate and lysis buffer are added. […] EC50 values of the synthetic peptides determined in cAMP assays are then determined.

Experiment [2] deals with T2, human GLP-1 receptor (GLP-1R) (Homo sapiens, UniProt P43220).
T2 construct: expressed in transfected cells
Briefly: cAMP assay, human GLP-1R cells. The procedure, abridged:
(§1)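 Peptide-stimulated cAMP measured by two-step HTRF after a 30 min room-temperature incubation with receptor-expressing cells (hGLP-1R, hGIPR at 1×10^5 cells/ml; hGCGR at 2×10^5 cells/ml). Duplicate dilutions; EC50 from 4-parameter logistic fit of % Delta F.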
Background: Changes in cAMP serve as a functional read-out for many G protein-coupled receptors.

Experiment [3] addresses T3, human glucose-dependent insulinotropic peptide receptor (GIPR) (Homo sapiens, UniProt P48546).
T3 construct: expressed in transfected cells
T3 sequence (P48546 22-466): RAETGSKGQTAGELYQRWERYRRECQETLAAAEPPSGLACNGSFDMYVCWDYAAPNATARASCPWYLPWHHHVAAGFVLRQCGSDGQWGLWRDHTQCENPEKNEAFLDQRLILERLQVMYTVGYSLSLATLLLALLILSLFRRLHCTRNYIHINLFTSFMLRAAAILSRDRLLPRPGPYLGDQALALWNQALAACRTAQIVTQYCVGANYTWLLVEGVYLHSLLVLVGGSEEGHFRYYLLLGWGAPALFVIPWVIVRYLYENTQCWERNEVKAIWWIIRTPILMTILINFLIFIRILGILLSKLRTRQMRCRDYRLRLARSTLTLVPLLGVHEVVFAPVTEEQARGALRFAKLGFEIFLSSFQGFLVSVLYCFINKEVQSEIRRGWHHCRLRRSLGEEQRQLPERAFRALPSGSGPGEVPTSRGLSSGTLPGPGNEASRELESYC
Description: cAMP assay, human GIPR cells. Particulars: cAMP assay. The procedure, abridged:
as §1

Experiment [4] concerns the target T4, human glucagon receptor (GCGR) (Homo sapiens, UniProt P47871).
T4 construct: expressed in transfected cells
Briefly: cAMP assay, human GCGR cells. Particulars: cAMP assay. In outline:
as §1

Setting [5] is: mean of n1 and n2, read-out: INS1e assay EC50 Mean pM GLP-1R.
Setting [6] is: replicate n1, read-out: INS1e assay EC50 GLP-1R n1.
Setting [7] is: replicate n2, read-out: INS1e assay EC50 GLP-1R n2.

Like-named read-outs stand apart in the source and are kept apart here. Numbered stars: 1 amine (or outer) side, 2 acyl side, 3 side chain; on linkers, the order of the positions; unused ones are H or OH. Square brackets hold non-standard residues; d marks the D form. Side chains are listed from the residue outwards. Peptide text beside a SMILES is read from it. * marks the point of attachment. γGlu = O=C(O)[C@H](CCC(=O)[*:2])N[*:1]; Palmitoyl = CCCCCCCCCCCCCCCC(=O)*; αMeF = C[C@](N)(Cc1ccccc1)C(=O)O; αMeK = C[C@](N)(CCCCN)C(=O)O; Lauroyl = CCCCCCCCCCCC(=O)*; αMeS = C[C@](N)(CO)C(=O)O; Nle = CCCC[C@H](N)C(=O)O; AEEA = NCCOCCOCC(=O)O; Aib = CC(C)(N)C(=O)O

T2 sequence (P43220 24-463): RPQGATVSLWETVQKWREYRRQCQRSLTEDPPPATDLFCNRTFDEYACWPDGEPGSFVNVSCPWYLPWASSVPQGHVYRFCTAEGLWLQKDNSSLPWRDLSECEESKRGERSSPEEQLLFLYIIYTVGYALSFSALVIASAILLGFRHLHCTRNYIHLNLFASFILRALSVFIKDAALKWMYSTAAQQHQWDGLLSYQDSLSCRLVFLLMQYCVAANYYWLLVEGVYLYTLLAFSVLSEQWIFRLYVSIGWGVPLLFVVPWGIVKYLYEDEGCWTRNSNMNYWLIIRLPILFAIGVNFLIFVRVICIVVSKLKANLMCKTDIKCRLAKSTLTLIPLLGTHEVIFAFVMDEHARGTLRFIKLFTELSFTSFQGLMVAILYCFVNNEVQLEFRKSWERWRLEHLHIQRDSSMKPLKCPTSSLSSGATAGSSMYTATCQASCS
T4 sequence (P47871 26-477): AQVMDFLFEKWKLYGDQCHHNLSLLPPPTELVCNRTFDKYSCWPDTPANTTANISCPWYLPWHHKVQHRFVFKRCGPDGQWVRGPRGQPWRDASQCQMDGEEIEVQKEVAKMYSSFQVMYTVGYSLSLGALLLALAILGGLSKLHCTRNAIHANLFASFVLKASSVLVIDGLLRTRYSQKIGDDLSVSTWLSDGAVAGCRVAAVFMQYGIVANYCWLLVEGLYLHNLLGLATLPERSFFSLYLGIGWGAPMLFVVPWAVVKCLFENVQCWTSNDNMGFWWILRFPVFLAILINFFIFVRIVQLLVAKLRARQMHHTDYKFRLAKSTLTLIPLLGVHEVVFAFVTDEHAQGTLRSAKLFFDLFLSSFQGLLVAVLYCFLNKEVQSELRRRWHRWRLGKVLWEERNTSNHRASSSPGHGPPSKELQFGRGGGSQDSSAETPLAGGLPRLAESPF

In the case of `CCCCCCCCCCCCCCCC(=O)N[C@@H](CCC(=O)NCCOCCOCC(=O)NCCOCCOCC(=O)NCCCC[C@H](NC(=O)[C@H](C)NC(=O)[C@@H](NC(=O)[C@](C)(Cc1ccccc1)NC(=O)[C@H](CCC(=O)O)NC(=O)[C@](C)(CCCCN)NC(=O)[C@H](C)NC(=O)[C@H](C)NC(=O)[C@H](CCC(=O)O)NC(=O)CNC(=O)[C@H](CCC(=O)O)NC(=O)[C@H](CC(C)C)NC(=O)[C@H](CCCCNC(=O)COCCOCCNC(=O)COCCOCCNC(=O)CC[C@H](NC(=O)CCCCCCCCCCCCCCC)C(=O)O)NC(=O)[C@H](CO)NC(=O)[C@](C)(CO)NC(=O)[C@@H](NC(=O)[C@H](CC(=O)O)NC(=O)[C@H](CO)NC(=O)[C@@H](NC(=O)[C@](C)(Cc1ccccc1)NC(=O)[C@H](CO)NC(=O)CNC(=O)[C@H](CCC(=O)O)NC(=O)C(C)(C)NC(=O)[C@@H](N)Cc1c[nH]cn1)[C@@H](C)O)C(C)C)[C@@H](C)CC)C(=O)N[C@H](C(=O)N[C@H](C(=O)N[C@@H](CCC(=O)O)C(=O)NCC(=O)NCC(N)=O)C(C)C)C(C)C)C(=O)O` [compound 409] (H-H[Aib]EGS[αMeF]TSDV[αMeS]SK([AEEA-AEEA-γGlu-Palmitoyl])LEGEAA[αMeK]E[αMeF]IAK([AEEA-AEEA-γGlu-Palmitoyl])VVEGG-NH2), the EC50 was 216 pM in experiment [1] (setting [5]); 183 pM in experiment [1] (setting [6]); 249 pM in experiment [1] (setting [7]); 36.1 pM in experiment [2] (bis-lipidated peptides, mean of n1 and n2, read-out: Primary assay EC50 Mean pM GLP-1R); 39.5 pM in experiment [2] (bis-lipidated peptides, replicate n1, read-out: Primary assay EC50 GLP-1R n1); 32.6 pM in experiment [2] (bis-lipidated peptides, replicate n2, read-out: Primary assay EC50 GLP-1R n2).
Regarding `CCCCCCCCCCCC(=O)N[C@@H](CCC(=O)NCCOCCOCC(=O)NCCOCCOCC(=O)NCCCC[C@H](NC(=O)[C@H](C)NC(=O)[C@@H](NC(=O)[C@H](CCCC)NC(=O)[C@H](CCC(=O)O)NC(=O)[C@](C)(CCCCN)NC(=O)[C@H](C)NC(=O)[C@H](C)NC(=O)[C@H](CCC(=O)O)NC(=O)CNC(=O)[C@H](CCC(=O)O)NC(=O)[C@H](CC(C)C)NC(=O)[C@H](CCCCNC(=O)COCCOCCNC(=O)COCCOCCNC(=O)CC[C@H](NC(=O)CCCCCCCCCCC)C(=O)O)NC(=O)[C@H](CO)NC(=O)[C@](C)(CO)NC(=O)[C@@H](NC(=O)[C@H](CC(=O)O)NC(=O)[C@H](CO)NC(=O)[C@@H](NC(=O)[C@](C)(Cc1ccccc1)NC(=O)[C@H](CO)NC(=O)CNC(=O)[C@H](CCC(=O)O)NC(=O)C(C)(C)NC(=O)[C@@H](N)Cc1c[nH]cn1)[C@@H](C)O)C(C)C)[C@@H](C)CC)C(=O)N[C@H](C(=O)N[C@H](C(=O)N[C@@H](CCC(=O)O)C(=O)NCC(=O)NCC(N)=O)C(C)C)C(C)C)C(=O)O` [compound 407] (H-H[Aib]EGS[αMeF]TSDV[αMeS]SK([AEEA-AEEA-γGlu-Lauroyl])LEGEAA[αMeK]E[Nle]IAK([AEEA-AEEA-γGlu-Lauroyl])VVEGG-NH2), the EC50 worked out at 104 pM in experiment [1] (setting [5]), 113 pM in experiment [1] (setting [6]) and 95.2 pM in experiment [1] (setting [7]).
For `CCCCCCCCCCCCCCCC(=O)N[C@@H](CCC(=O)NCCCC[C@H](NC(=O)[C@H](CO)NC(=O)CNC(=O)[C@H](CCC(=O)O)NC(=O)C(C)(C)NC(=O)[C@@H](N)Cc1c[nH]cn1)C(=O)N[C@H](C(=O)N[C@@H](CO)C(=O)N[C@@H](CC(=O)O)C(=O)N[C@H](C(=O)N[C@@](C)(CO)C(=O)N[C@@H](CO)C(=O)N[C@@](C)(Cc1ccccc1)C(=O)N[C@@H](CC(C)C)C(=O)N[C@@H](CCC(=O)O)C(=O)NCC(=O)N[C@@H](CCC(=O)O)C(=O)N[C@@H](C)C(=O)N[C@@H](C)C(=O)N[C@@](C)(CCCCN)C(=O)N[C@@H](CCC(=O)O)C(=O)N[C@@](C)(Cc1ccccc1)C(=O)N[C@H](C(=O)N[C@@H](C)C(=O)N[C@@](C)(Cc1ccccc1)C(=O)N[C@H](C(=O)N[C@H](C(=O)N[C@@](C)(CCCCN)C(=O)NCC(=O)NCC(N)=O)C(C)C)C(C)C)[C@@H](C)CC)C(C)C)[C@@H](C)O)C(=O)O` [compound 94], the EC50 was no less than 28 nM in experiment [3] (first determination (n1), read-out: Primary assay EC50 GIP-R (n1)); no less than 28 nM in experiment [3] (second determination (n2), read-out: Primary assay EC50 GIP-R (n2)); no less than 28 nM in experiment [4] (first determination (n1), read-out: Primary assay EC50 Gluc-R (n1)); no less than 28 nM in experiment [4] (second determination (n2), read-out: Primary assay EC50 Gluc-R (n2)); 140 pM in experiment [2] (cAMP assay, first determination (n1), read-out: Primary assay EC50 GLP-1R n1); 320 pM in experiment [2] (cAMP assay, second determination (n2), read-out: Primary assay EC50 GLP-1R n2). Besides, the EC50 in experiment [2] (mean of n1 and n2, read-out: Mean pM GLP-1R) turned out to be 228 pM.
